Assay results: ChEMBL document CHEMBL1201862, “PubChem BioAssay data set” (2004)
The source made the active and inactive calls.

How the values were obtained:
[1] = target: T1, Small ubiquitin-related modifier 1 (Homo sapiens, UniProt P63165); assay: SUMO1 protein-protein binding blockers, potency – biochemical, FRET, dose response (AID 624383); type: functional; settings: read-out: IC50_Mean
[2] = test system: HeLa; assay: viability loss in HeLa cells – cell-based, 24 h, cherry-picked samples, cytotoxicity control, dose response (AID 504726); type: functional; settings: Homo sapiens;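 also: potency for cytotoxicity as loss of luminescence signal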
[3] = target: Albumin (Bos taurus, UniProt P02769); assay: Counterscreen for inhibitors of T-cell receptor (TCR)-CD3 interaction: Fluorescence-based biochemical high throughput dose response assay to identify inhibitors of T-cell receptor (TCR)-CD3 interaction using a TAMRA-labeled BSA probe.; type: functional
Chain of Albumin (P02769 whole entry, the tested form may be a part): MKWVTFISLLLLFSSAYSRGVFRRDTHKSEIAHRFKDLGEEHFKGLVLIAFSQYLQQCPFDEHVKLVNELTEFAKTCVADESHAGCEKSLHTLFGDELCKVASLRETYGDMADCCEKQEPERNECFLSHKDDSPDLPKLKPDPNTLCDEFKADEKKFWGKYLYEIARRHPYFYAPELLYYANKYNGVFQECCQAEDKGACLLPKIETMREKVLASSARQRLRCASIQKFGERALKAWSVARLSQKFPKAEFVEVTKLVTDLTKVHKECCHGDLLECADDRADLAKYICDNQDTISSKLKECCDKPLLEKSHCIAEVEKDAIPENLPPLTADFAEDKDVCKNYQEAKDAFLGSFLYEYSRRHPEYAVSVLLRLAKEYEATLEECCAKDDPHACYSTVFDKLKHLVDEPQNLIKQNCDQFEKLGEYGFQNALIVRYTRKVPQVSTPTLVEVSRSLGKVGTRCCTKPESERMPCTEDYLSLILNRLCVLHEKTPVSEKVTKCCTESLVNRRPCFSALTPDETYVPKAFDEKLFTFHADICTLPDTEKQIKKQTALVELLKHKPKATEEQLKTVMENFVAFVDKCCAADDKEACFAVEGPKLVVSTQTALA

[4] = target: T2, Carboxy-terminal domain RNA polymerase II polypeptide A small phosphatase 1 (Homo sapiens, UniProt Q9GZU7); assay: CTDSP1 inhibitors, concentration-response, biochemical, absorbance readout, ultra-high-throughput screen actives (AID 540297); type: functional
T2 sequence (Q9GZU7 whole entry): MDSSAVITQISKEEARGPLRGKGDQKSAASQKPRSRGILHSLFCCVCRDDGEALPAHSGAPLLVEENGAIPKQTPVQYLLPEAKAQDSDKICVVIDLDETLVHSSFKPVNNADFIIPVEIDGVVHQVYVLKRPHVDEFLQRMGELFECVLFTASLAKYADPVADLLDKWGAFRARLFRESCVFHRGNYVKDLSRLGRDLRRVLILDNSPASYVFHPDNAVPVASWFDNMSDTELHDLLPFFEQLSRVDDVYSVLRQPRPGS

[5] = target: T3, Rac GTPase-activating protein 1 (Homo sapiens, UniProt Q9H0H5); assay: blockers of MgcRacGAP-driven Rac1 GTP hydrolysis – biochemical, ADP Hunter fluorescence, primary and confirmatory, confirmation (AID 624330); type: functional
T3 sequence (Q9H0H5 whole entry): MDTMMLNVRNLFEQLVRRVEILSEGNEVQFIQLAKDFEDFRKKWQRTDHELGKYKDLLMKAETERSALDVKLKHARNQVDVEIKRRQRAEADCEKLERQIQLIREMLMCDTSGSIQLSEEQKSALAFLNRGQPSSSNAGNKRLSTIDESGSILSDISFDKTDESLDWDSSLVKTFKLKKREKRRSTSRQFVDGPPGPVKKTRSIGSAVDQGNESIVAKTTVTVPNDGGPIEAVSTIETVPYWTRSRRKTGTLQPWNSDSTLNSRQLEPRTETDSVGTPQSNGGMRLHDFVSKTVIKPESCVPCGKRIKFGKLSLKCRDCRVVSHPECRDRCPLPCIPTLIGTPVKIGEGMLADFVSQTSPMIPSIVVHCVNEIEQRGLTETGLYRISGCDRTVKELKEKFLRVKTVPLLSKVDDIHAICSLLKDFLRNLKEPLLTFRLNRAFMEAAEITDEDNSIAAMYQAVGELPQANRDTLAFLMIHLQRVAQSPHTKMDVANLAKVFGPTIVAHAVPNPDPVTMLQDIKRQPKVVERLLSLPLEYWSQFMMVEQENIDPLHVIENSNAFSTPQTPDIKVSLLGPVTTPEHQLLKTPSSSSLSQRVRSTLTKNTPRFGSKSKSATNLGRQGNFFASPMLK

[6] = target: T1, Small ubiquitin-related modifier 1; assay: SUMO1 protein interaction blockers, potency – biochemical, fluorescence polarization, uHTS hits, dose response (AID 624382); type: functional; settings: read-out: IC50_Mean
[7] = target: T4, Alkaline phosphatase, tissue-nonspecific isozyme (Homo sapiens, UniProt P05186); assay: potency against alkaline phosphatase TNAP – biochemical, luminescent, dose response, SAR follow-up (AID 1056)
T4 sequence (P05186 whole entry): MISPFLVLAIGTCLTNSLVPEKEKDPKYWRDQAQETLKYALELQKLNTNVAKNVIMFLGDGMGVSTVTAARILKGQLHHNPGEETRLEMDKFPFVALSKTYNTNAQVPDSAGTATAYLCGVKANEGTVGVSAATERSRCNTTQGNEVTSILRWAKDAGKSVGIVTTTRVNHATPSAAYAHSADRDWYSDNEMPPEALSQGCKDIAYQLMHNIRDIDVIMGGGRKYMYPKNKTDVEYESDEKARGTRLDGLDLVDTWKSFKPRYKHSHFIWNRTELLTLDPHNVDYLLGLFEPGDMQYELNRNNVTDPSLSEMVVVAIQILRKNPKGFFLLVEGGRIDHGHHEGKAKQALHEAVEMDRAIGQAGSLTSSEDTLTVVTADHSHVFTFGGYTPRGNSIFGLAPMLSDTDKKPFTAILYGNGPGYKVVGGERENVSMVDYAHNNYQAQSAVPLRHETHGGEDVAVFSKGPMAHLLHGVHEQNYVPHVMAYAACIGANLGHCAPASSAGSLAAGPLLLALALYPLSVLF

[8] = target: Alkaline phosphatase, placental type (Homo sapiens, UniProt P05187); assay: human placental alkaline phosphatase inhibition – biochemical, luminescence, confirmation (AID 1512); type: functional
Chain of Alkaline phosphatase, placental type (P05187 whole entry): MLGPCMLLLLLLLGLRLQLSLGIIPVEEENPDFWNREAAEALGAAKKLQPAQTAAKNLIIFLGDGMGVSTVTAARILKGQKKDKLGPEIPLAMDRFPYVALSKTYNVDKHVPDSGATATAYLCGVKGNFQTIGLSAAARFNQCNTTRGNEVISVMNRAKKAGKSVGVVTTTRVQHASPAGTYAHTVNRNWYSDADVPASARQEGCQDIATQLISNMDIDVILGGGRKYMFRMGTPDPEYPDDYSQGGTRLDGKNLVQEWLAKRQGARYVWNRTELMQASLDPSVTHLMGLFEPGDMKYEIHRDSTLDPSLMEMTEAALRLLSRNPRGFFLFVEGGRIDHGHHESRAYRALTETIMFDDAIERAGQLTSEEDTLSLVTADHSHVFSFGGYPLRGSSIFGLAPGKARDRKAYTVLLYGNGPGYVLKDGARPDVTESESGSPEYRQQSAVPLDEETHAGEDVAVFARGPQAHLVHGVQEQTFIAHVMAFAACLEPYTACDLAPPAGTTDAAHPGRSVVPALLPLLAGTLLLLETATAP

[9] = target: Nonstructural protein 1 (Influenza A virus, UniProt Q194T2); type: functional, Influenza A virus (A/California/07/2009(H1N1))
Chain of Nonstructural protein 1 (Q194T2 whole entry): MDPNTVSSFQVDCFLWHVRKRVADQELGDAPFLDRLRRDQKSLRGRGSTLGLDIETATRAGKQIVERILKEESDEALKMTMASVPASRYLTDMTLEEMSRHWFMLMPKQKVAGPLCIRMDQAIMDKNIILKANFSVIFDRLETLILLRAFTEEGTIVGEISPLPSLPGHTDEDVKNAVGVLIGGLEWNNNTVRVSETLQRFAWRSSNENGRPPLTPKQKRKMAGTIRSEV

[10] = test system: HEK293; assay: cells; settings: Homo sapiens
[11] = target: Tumor necrosis factor (Homo sapiens, UniProt P01375); assay: analog potency on TNFa NF-kB signaling – cell-based, revised, SAR follow-up (AID 2337); type: functional
Chain of Tumor necrosis factor (P01375 whole entry, the tested form may be a part): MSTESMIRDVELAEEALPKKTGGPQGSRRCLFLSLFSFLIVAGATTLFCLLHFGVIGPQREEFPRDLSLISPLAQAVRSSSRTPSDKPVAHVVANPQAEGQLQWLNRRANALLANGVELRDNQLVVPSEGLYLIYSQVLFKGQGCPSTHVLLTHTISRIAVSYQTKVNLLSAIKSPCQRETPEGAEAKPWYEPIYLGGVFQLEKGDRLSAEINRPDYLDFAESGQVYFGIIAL

[12] = target: T5, Nucleotide-binding oligomerization domain-containing protein 1 (Homo sapiens, UniProt Q9Y239); assay: blockers of NOD1 pathway activity – revised, SAR follow-up (AID 2333); type: functional
T5 sequence (Q9Y239 whole entry): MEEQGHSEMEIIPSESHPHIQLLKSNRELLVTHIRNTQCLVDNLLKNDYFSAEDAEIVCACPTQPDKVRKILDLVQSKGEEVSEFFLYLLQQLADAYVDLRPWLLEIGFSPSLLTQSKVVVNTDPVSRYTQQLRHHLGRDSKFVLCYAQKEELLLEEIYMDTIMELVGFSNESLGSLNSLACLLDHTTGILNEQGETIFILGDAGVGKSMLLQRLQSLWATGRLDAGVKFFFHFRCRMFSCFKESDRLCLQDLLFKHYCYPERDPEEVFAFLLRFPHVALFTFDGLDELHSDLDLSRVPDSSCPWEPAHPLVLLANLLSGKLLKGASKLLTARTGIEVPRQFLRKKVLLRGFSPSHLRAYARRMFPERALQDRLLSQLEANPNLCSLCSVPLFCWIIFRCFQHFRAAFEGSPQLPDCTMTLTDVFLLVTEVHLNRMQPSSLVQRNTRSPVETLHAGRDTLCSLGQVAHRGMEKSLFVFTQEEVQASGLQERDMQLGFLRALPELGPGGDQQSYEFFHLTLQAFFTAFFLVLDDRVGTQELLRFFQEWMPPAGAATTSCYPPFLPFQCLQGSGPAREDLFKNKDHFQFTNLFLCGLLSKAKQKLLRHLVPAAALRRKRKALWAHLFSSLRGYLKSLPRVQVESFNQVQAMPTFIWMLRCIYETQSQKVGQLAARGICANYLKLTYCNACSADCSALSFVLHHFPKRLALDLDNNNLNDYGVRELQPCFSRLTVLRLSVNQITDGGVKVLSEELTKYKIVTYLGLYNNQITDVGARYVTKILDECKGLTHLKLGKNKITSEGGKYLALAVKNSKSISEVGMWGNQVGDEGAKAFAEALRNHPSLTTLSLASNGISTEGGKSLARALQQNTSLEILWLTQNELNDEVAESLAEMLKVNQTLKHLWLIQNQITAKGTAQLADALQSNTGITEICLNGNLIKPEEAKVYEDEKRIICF

[13] = target: T6, Nuclear receptor subfamily 0 group B member 1 (Homo sapiens, UniProt P51843); assay: Luminescence-based cell-based high throughput dose response assay for inhibitors of the orphan nuclear receptor subfamily 0, group B, member 1 (DAX1; NR0B1). [Related pubchem assays (depositor defined):AID504766, AID504790]; type: functional
T6 sequence (P51843 whole entry): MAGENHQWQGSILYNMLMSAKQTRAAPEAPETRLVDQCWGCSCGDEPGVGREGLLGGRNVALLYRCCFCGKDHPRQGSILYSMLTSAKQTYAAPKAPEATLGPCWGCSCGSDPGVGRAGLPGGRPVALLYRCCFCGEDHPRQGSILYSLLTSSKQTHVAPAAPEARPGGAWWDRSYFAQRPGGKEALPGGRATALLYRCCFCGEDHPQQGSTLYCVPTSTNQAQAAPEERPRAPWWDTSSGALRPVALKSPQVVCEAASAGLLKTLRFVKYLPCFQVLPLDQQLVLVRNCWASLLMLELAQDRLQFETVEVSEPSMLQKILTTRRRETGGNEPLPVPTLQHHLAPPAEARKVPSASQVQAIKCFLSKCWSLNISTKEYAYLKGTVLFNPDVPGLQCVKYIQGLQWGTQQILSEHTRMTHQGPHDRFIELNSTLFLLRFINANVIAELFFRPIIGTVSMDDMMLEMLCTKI

[14] = test system: HEK293; assay: cells; type: functional, cell-based; settings: Homo sapiens
[15] = test system: H9c2; assay: cells; type: functional, cell-based; settings: Rattus norvegicus, H9c2, Myocardium;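 also: confirmatory concentration-response retest of ultra-high-throughput screening hits for modulation of myocardial damage; cell death induced by hydrogen peroxide oxidative stress; compound pretreatment for 60 min then peroxide exposure for 2 h; potency is for protecting the cells against peroxide damage rather than for killing them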

T1 sequence (P63165 whole entry): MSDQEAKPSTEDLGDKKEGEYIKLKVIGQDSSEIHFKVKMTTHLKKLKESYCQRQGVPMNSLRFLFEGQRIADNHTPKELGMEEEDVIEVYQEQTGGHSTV

CCOc1ccc(Nc2ccc(N)c(S(=O)(=O)O)c2)cc1
IC50 [1]: 11.7 µM (active)
AC50 [2]: 299 µM (active)
IC50 [3]: > 94.1 µM (inactive)
IC50 [4]: 3.21 µM (active)
IC50 [5]: 68.9 µM (active)
IC50 [6]: > 66.6 µM (inactive)

CCCCN1C(=O)/C(=N\Nc2ccccc2)c2ccccc21
IC50 [7]: 72.3 µM (active)
IC50 [8]: 18.7 µM (active)

CN1CCN(C2CCN(c3ccc(Nc4nnc(Cl)c(Nc5ccccc5S(C)(=O)=O)n4)c(OC(CF)CF)c3)CC2)CC1
IC50 [9]: > 100 µM (active)

CCOc1ccc(NC(=O)c2ccc(CCN3CCc4ccccc4C3)cc2)cc1
IC50 [10]: > 20 µM (inactive)
IC50 [11]: > 20 µM (inactive)
IC50 [12]: > 20 µM (inactive)

CN(C)c1ccc(NC(=O)c2ccc(CN3CCc4ccccc4C3)cc2)cc1
IC50 [10]: > 20 µM (inactive)
IC50 [11]: 1.83 µM (active)
IC50 [12]: 1.61 µM (active)

Cn1c(NCC(=O)c2ccc(O)c(O)c2)nc2ccccc21
IC50 [7]: 8.58 µM (active)
IC50 [8]: 7.9 µM (active)

Cc1[nH]c2ccccc2c1/C=N/NC(=O)c1cccs1
IC50 [13]: > 67.6 µM (inactive)
IC50 [14]: > 67.6 µM (inactive)
IC50 [15]: > 79 µM (inactive)
